For 86 compounds, melting point results are on record in a melting point compilation (Tetko et al.; mined from patent text by program, amines drawn as free bases though some values may be those of a salt).

For orientation: melting point means the temperature of the solid-liquid transition. For `CC1=C(C(=O)OC(C)C)C(c2ccccc2F)n2nncc2N1` (stereo unspecified), the melting point is 137 to 139 °C.
The result for `COc1ccc2c(c1)CCC(c1ccccc1)=C2c1ccccc1` reads 98 to 101 °C.
The compound `O=C1NCC[C@@H]1NCc1ccc(OCc2cccc(F)c2)cc1` showed a melting point of 140 to 144 °C.
As to `Cc1ccccc1-c1nc(COc2cccc3cc(NS(=O)(=O)C(F)(F)F)ccc23)co1`, the melting point lay within 127 to 130 °C.
With `O=C=Nc1ccc(C(=S)OC2CCCCC2)c(Cl)c1`, the melting point is 60 to 65 °C.
The result for `CSC(=Nc1ccc(Cl)c(Cl)c1)NS(C)(=O)=O` reads 122 to 125 °C; that for `C=CCC(C#N)(C#N)Cc1ccc([N+](=O)[O-])cc1`, 94.2 °C; that for `CCOC(=O)C1COc2cc(C=O)c(Cl)c(Cl)c2O1` (stereo unspecified), 101 to 102 °C.
The result for `CCOC(=O)C1=C2COC=CN2C(C)=C(C(=O)OC)C1c1ccccc1Cl` (stereo unspecified) reads 126 to 127 °C.
The compound `CCOC(=O)C(=C1SC(=S)N(CC(=O)O)C1=O)c1csc(NC(=O)c2ccccc2)n1` returned a melting point of 278 to 281 °C.
The result for `Cc1ccc(O)c(F)n1` reads 133 to 135 °C; that for `Cc1sc(-c2ccccc2)nc1COc1ccc(COc2ccccc2CC(=O)O)cn1`, 173 to 174 °C.
The result for `CCC(CC)Sc1cc2c(cc1Cl)N=C(CCl)NS2(=O)=O` reads 213 to 214 °C.
The result for `O=S(=O)(c1cn(-c2c(Cl)cc(C(F)(F)F)cc2Cl)c(Cl)n1)C(F)(F)F` reads 182 °C.
`COc1cc(C(=O)C2C(=O)N(C)C(=O)N(C)C2=O)ccc1Oc1nc2ccccc2s1`: the melting point lay within 210 to 211 °C.
With `OCCn1cnc2c(NCCN3CCC(Nc4nc5ccccc5n4Cc4ccc(F)cc4)CC3)ncnc21`, the melting point is 169 °C.
`CN(C)Cc1cccc(OCCCNc2ncc(Cc3cccnc3)c(=O)[nH]2)c1` showed a melting point of 103 to 104 °C.
The result for `Cn1nc(C(=O)O)nc1NCCCOc1cccc(CN2CCCCC2)c1` reads 130 °C; that for `Clc1ccc(-c2ccc(-c3ccccc3)s2)s1`, 128 to 132 °C.
Compound `Nc1cc(C[C@H](Nc2nc3ccc(Cl)cc3cc2C(=O)O)C(=O)O)ccc1Oc1nc2ccc(Cl)cc2cc1C(=O)O` returned a melting point of over 250 °C.
The result for `CC1C(C)(C)c2ccc(O)cc2C1(C)C` (stereo unspecified) reads 149 °C; that for `CN1CCN(C2=Nc3ccccc3S(=O)(=O)N2)CC1`, 265 to 267 °C.
The result for `CCOC(=O)c1c(C)nc(Cl)c([N+](=O)[O-])c1Cl` reads 45 to 46 °C; that for `CC(C)(C)OC(=O)N1C[C@@H](P(C2CCCCC2)C2CCCCC2)C[C@H]1CP(c1ccccc1)c1ccccc1`, 171 to 174 °C; that for `CCC(=O)C(O)(Cc1ccc(C)cc1)c1ccc(N2CCOCC2)cc1` (stereo unspecified), 160 °C.
Compound `CC(C)C[C@H](NC(=O)OCc1ccccc1)C(=O)N[C@H]1CCOC1=O` registered a melting point of 130 to 131 °C.
In turn, `COC(=O)CC(O)CC(=O)C=Cc1ccc(Cl)cc1Cl` (stereo unspecified) returned a melting point of 77 to 79 °C.
The result for `CC(C(=O)O)c1ccc2nc(-c3ccccc3)oc2c1` (stereo unspecified) reads 132 °C.
The result for `CCOc1ccc(CCN(C(=O)O)C(=O)[C@H](CCSC)NC(C)=O)cc1OCC` reads 85 to 90 °C.
Take `CCC12CCC3=C(CCc4cc(O)ccc43)C1CCC2O` (stereo unspecified): the melting point fell in the range of 234 to 238 °C.
The result for `Cc1cc(-c2nc3ccccc3c(=O)n2-c2ccc(Cl)cc2)cc(C)c1OCCO` reads 101 to 103 °C; that for `O=P(c1ccccc1)(c1ccccc1)c1ccc(F)cc1F`, 111 to 112 °C; that for `CCn1c(C(C)NS(=O)(=O)c2ccc(Cl)c(Cl)c2)cnc1Oc1ccc(Cl)cc1` (stereo unspecified), 153 to 157 °C.
The result for `Cc1c(-c2ccccc2)sc2nc(NCCNC(=O)CCN3CCN(C)CC3)[nH]c(=O)c12` reads 235 to 245 °C; that for `O=C(O)C1=Cc2cc(Cl)cc(-c3ccc(Cl)cc3)c2OC1C(F)(F)F` (stereo unspecified), 206 to 207 °C; that for `COCc1nc2c3c(ccn2c1C)[C@@H](O)[C@H](O)[C@@H](c1ccccc1)N3`, 102 to 104 °C.
The result for `O=C1CC(c2cccc(Cl)c2)c2cc(C(=O)c3ccc([N+](=O)[O-])cc3)ccc2N1` (stereo unspecified) reads 147 °C; that for `CCc1nnc(-c2ccc(OC)cc2)n1-c1ccc(N(C)C)cc1`, 136 °C; that for `O=CNc1cccc2c1C(=O)c1c-2n[nH]c1-c1ccncc1`, over 300 °C.
For the compound `O=C1N(C(c2ccccc2)c2ccccc2)c2ccccc2C12COc1cc(F)c(F)cc12` (stereo unspecified), the melting point fell in the range of 213 to 216 °C.
On to `CC1=NC(NC(=O)Nc2cccc(C)c2)C(=O)N(CC(=O)N2CCC(N3CCCCC3)CC2)c2c(C)cccc21` (stereo unspecified), for which the melting point lay in the range of 214 to 217 °C.
Take `CC(=O)Nc1cccc2c(-c3ccc(=O)n(C(C)C)n3)c(-c3ccccc3)nn12`: the melting point was in the range of 92 to 96 °C.
`FC(F)c1nc2ccccc2n1-c1nc(Nc2ncccn2)nc(N2CCOCC2)n1` came in with a melting point of 261 to 263 °C.
For `CCCCc1nc([N+](=O)[O-])c(CSc2ccccc2C(=O)O)n1Cc1ccc(C(=O)O)cc1`, the melting point lay within 246 to 247 °C.
In turn, `CN(C)CCNC(=O)c1ccc(-c2ccc3nnn(Cc4ccc5ncccc5c4)c3n2)cc1F` yielded a melting point of 122 to 125 °C.
The result for `CC(C)(C)c1ccccc1N1CCN(C(=O)C(=O)Nc2ccccn2)CC1` reads 168 to 172 °C; that for `COc1cc2c(cc1OC)CN(CCN(C)Cc1ccc(NC(=O)c3cccc4c(=O)c5cccc(OC)c5[nH]c34)cc1)CC2`, 202 °C.
The result for `CC(Oc1ccc(N(C)c2nnc3cc(Cl)ccc3n2)cc1)C(=O)O` (stereo unspecified) reads 125 °C; that for `CNC(=O)c1ccc(C(=O)OC)cc1`, 126 °C.
Regarding `COc1ccc(-c2cc(=O)n(CC=Cc3ccc(F)cc3F)nc2-c2ccc(OC)cc2)cc1`, the melting point fell in the range of 107 to 108 °C.
As for `CCOC(=O)c1c(N)c2ccc(C)nc2n(CC)c1=O`, the melting point is 196 to 198 °C.
Take `Cc1cnn(-c2ccc(C(=O)N3Cc4cccn4Cc4ccccc43)cc2)c1`: the melting point lay within 179 to 181 °C.
The result for `CCCCCCCNc1cccc(O)c1` reads 27 to 30 °C.
Compound `COC(=O)C(C)(C)S(=O)(=O)N1CCC(c2ccc(-n3ccc(OC)n3)c(C)c2)CC1` displayed a melting point of 109 to 110 °C.
The result for `COc1ccccc1-c1nn(C(C)(C)C(=O)N(C)C)cc1C` reads 146 to 148 °C; that for `CC(C)CCCSC1c2ccccc2C(=O)N1c1ccc2ccc(Cl)nc2n1` (stereo unspecified), 141 °C; that for `O=C1NC(=O)c2c(Cl)cccc21`, 236 to 238 °C.
`COc1nc(OC)c(I)c(C(=O)O)n1` came in with a melting point of 125 to 126 °C.
The result for `O=S1(=O)NCN(CCCCF)c2cc(Cl)c(Cl)cc21` reads 141 to 143 °C; that for `CCSc1ccc(Cl)c(C#N)n1`, 46 to 48 °C.
Consider `CCCCCc1cc2c(nc(O)n2CC2CCN(C(=O)C3CC3)CC2)c(N)n1`, for which the melting point was 205 to 207 °C.
The result for `COc1ccc(C(=O)c2ccc(OCc3nc(-c4ccccc4)sc3C)cc2)c(OC(C)(C)C(=O)O)c1` reads 145 to 147 °C; that for `CCCCCN1C(=O)C2(COc3cc4c(cc32)OCO4)c2c(C#N)cccc21` (stereo unspecified), 128 to 129 °C.
Compound `Cc1ccc(-c2ccc(S(=O)(=O)N3c4ccccc4CC3C(=O)NCCOc3ccc(CC(=O)O)cc3)cc2C(F)(F)F)cc1` (stereo unspecified) registered a melting point of 92 °C.
As for `[N-]=[N+]=Nc1ccc(C(=O)NCCCC[C@@H](C(=O)O)n2c3ccccc3c3ccccc32)cc1`, the melting point was 98 to 100 °C.
The result for `Clc1ccc(Cl)c(-c2nnnn2Cc2cccnc2)c1` reads 166 to 168 °C.
The result for `Cc1cc(N)c(Cl)c(N)c1` reads 114 to 116 °C; that for `N#CC=Cc1ccc(Cc2ncc[nH]2)cc1`, 118 to 120 °C.
The result for `Nc1nc(Cn2c(-c3ccc(Oc4cncnc4)cc3)ccc2-c2ccccc2Cl)ccc1NCCO` reads 78 to 82 °C.
`NCC1Cc2cc(-c3ccccc3)cc(-c3ccc(F)cc3F)c2O1` (stereo unspecified): the melting point was 159 to 162 °C.
The result for `Cc1cccc(Cl)c1Nc1nc2ccc(-c3c(C)cccc3C)cc2n2cncc12` reads 140 to 150 °C; that for `CCCc1c(OC(C)=O)cc2oc3cc(Cl)cn3c(=O)c2c1OC(C)=O`, 178 to 179 °C; that for `CCCCCCCCCCCCCCCCCNC(=O)O[C@@H]1CCCO[C@H]1COc1cc(CCCCO)on1` (relative stereo), 86 to 87 °C.
The result for `Cc1sc(C)c(CC#N)c1CC#N` reads 124 to 126 °C; that for `COC(=O)c1ccc(-c2ncccc2S(=O)(=O)Nc2ncc(C)nc2OC)cc1`, 144 to 146 °C.
`C=CCNC(=O)C1=C(C(=O)Nc2ccc(Br)cc2F)CCCC1` displayed a melting point of 167 to 169 °C.
As to `O=C(NCC/C=C\CCCNC(=O)c1ccc(OC(F)(F)F)cc1)c1ccc(OC(F)(F)F)cc1`, the melting point is 111 to 113 °C.
For the compound `Cc1ccc(C(N)=S)c(N)c1`, the melting point is 172 to 174 °C.
The result for `COc1cc(C2c3cc4c(cc3C(NC(=O)CNCCN(C)C)C3COC(=O)C23)OCO4)cc(OC)c1O` (stereo unspecified) reads 230 °C; that for `CC1CCC(c2ccc(OCC(=O)O)c(Cl)c2Cl)=CC1=O` (stereo unspecified), 183 to 185 °C.
On to `COc1cc2c(cc1-c1c(C)nn(C)c1C)-c1c(-c3cccs3)c3c(n1CC2)C(=O)N(C(C)C)CCN(C(=O)C(C)C)C3`, for which the melting point fell in the range of 232 to 235 °C.
The result for `COCOc1cccc(CN(C)c2cnc(-c3ccccc3)c(-c3ccccc3)n2)c1` reads 109 to 111 °C; that for `Cc1ccc(-c2c(C#N)n(C)c(=O)c3ncccc23)cc1`, 268 to 270 °C.
`CON=CC(C)(C)NC(=O)c1c(I)cccc1C(=O)Nc1ccc(OC(C(F)(F)F)C(F)(F)F)nc1C` had a melting point of 220 °C.
The result for `COc1cc(OC)nc(C(=O)NS(=O)(=O)CC(C)C)n1` reads 128 to 130 °C; that for `CN(C)C1(c2ccccc2)CCC(C#N)(N2CCCC2)CC1` (stereo unspecified), 136 to 142 °C.
